Experimental data: PMC9481570, “A small molecule antagonist of SMN disrupts the interaction between SMN and RNAP II” (Nature Communications, 2022)
Several values for one entry are separate records, joined by “and”; a condition that tells them apart may be missing. Equal entries are not always repeated.

Key:
Experiment in all cases: Affinity-purification and mass spectrometry (AP-MS) chemical proteomics, all proteins;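 on Difference: 200 µM free competitor with 20 µM biotin probe overnight in lysate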
Assay type in all cases: binding
[1] = molecular target: T1, proteins displaced from immobilized biotin-Cmpd 1 pulldowns (U2OS cell lysate) (Homo sapiens, UniProt Q86UE4); conditions: GN=MTDH (Q86UE4)
T1 construct: endogenous in cells; host or cells: U2OS
T1 sequence (Q86UE4 whole entry): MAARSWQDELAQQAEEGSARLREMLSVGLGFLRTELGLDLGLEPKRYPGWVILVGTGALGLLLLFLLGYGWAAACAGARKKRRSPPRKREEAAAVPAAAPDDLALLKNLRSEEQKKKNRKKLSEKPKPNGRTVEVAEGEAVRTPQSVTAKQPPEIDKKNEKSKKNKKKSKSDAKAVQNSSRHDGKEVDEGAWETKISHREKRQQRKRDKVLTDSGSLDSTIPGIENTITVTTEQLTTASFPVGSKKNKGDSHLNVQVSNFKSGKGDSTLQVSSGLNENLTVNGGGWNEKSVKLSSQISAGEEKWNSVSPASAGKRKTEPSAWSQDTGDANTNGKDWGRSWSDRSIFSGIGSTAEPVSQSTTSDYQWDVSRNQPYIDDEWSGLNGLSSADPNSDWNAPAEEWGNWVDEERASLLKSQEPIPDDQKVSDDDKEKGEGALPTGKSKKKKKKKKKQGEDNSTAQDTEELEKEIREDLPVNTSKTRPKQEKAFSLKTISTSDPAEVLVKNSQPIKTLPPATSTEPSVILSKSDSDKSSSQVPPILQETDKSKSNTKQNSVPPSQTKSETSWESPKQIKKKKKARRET
Method: (§1) The samples for AP-MS were prepared following pulldown procedure as previously described with minor modifications. Briefly, U2OS cells were lysed in RIPA buffer and the cell lysate was equally divided into two groups: (1) DMSO group (control group): the cell lysate was incubated with 20 μM biotin-labeled compound 1; (2) Cpmd 1 group (sample group): the cell lysate was incubated with 20 μM biotin-labeled compound 1 and 200 μM free compound 1. Each group contains three biological replicates. They were incubated overnight at 4 °C, then 30 μL streptavidin beads (Thermo Fisher, 20353) was added and incubated at 4 °C for 1 h. The beads were then washed with RIPA buffer for 3 times, 10 min/time.
(§2) Beads were rinsed twice with 50 mM TEAB, pH 7.55, before eluting proteins with 25 μL of 5% SDS, 50 mM TEAB, pH 7.55. The sample was then centrifuged at 17,000 × g for 10 min to remove any debris. Proteins were reduced with 20 mM TCEP (Thermo Fisher, 77720) and incubated at 65 °C for 30 min. The sample was cooled to room temperature and 1 μL of 0.5 M iodoacetamide acid was added and allowed to react for 20 min in dark. Phosphoric acid (12%, 2.75 μL) was added to the protein solution, followed by adding 165 μL of binding buffer (90% methanol, 100 mM TEAB, pH 7.1). The resulting solution was added to S-Trap spin column (protifi.com) and passed through the column using a bench top centrifuge (30 s spin at 4000 × g). The spin column was washed with 400 μL of binding buffer and centrifuged. This step was repeated two more times. Then trypsin was added to the protein mixture at a mass ratio of 1:25 in 50 mM TEAB, pH 8.0, and the sample was incubated at 37 °C for 4 h. Peptides were eluted with 80 μL of 50 mM TEAB, followed by 80 μL of 0.2% formic acid, and finally 80 μL of 50% acetonitrile, 0.2% formic acid. The combined peptide solution was then dried in a speed vac and resuspended in 2% acetonitrile, 0.1% formic acid, 97.9% water and placed in an autosampler vial.
(§3) Samples were analyzed by nanoLC-MS/MS (nanoRSLC, Thermo Fisher) using an Aurora series (Ion Opticks) reversed phase HPLC column (25 cm length × 75 µm inner diameter) and directly injected to an Orbitrap Eclipse (Thermo Fisher) using a 120 min gradient (mobile phase A = 0.1% formic acid, mobile phase B = 99.9% acetonitrile with 0.1% formic acid; hold 2% B for 5 min, 2–6% B in 0.1 min, 6–25% in 100 min, 25–50% in 15 min) at a flow rate of 350 nL/min. Eluted peptide ions were analyzed using a data-dependent acquisition (DDA) method with resolution settings of 120,000 and 15,000 (at m/z 200) for MS1 and MS2 scans, respectively. DDA-selected peptides were fragmented using stepped high energy collisional dissociation (27, 32, and 37%).
(§4) The data of AP-MS were analyzed as a previously described method with minor modifications. Briefly, the raw MS files were searched with MaxQuant software (version 1.6.1.1, www.maxquant.org)[56] against the UniProt human protein database (www.uniprot.org) concatenated with common contaminants and the decoy database. The mass tolerance for precursor ions was set to 20 ppm and 4.5 ppm for the first and main search, respectively. The cysteine carbamidomethylation was set as fixed modification and methionine oxidation and N-terminal acetylation as variable modifications. Enzyme specificity was set to trypsin and a maximum missed cleavage was set as 2. The 1% false discovery rate (FDR) at both peptide and protein levels was applied for the analysis. Relative protein quantification was based on the label-free quantification incorporated in the MaxQuant software. The iBAQ intensity of proteins was obtained for the control and experimental samples. The missing iBAQ intensity was replaced by a random number, which was calculated from a normal distribution with a width of 0.3 and a downshift of 1.8 defined by Perseus software (version 1.6.5.0). The P-value was calculated by performing two-sample Student’s t-test. […]

[2] = molecular target: T2, proteins displaced from immobilized biotin-Cmpd 1 pulldowns (U2OS cell lysate) (Homo sapiens, UniProt O14979); conditions: GN=HNRNPDL (A0A087WU03)
T2 construct: endogenous in cells; host or cells: U2OS
T2 sequence (O14979 whole entry): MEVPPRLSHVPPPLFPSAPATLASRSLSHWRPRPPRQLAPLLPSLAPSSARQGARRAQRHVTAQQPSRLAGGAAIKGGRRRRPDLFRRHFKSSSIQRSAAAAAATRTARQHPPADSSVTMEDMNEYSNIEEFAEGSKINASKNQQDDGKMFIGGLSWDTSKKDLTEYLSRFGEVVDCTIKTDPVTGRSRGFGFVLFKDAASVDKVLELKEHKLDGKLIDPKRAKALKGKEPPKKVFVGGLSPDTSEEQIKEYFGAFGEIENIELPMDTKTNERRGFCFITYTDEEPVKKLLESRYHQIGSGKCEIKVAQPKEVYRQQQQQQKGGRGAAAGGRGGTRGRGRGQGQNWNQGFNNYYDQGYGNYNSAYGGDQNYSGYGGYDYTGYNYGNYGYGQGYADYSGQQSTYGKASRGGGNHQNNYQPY
Method: as §1, §2, §3, §4

[3] = molecular target: T3, proteins displaced from immobilized biotin-Cmpd 1 pulldowns (U2OS cell lysate) (Homo sapiens, UniProt Q14566); conditions: GN=MCM6 (Q14566)
T3 construct: endogenous in cells; host or cells: U2OS
T3 sequence (Q14566 whole entry): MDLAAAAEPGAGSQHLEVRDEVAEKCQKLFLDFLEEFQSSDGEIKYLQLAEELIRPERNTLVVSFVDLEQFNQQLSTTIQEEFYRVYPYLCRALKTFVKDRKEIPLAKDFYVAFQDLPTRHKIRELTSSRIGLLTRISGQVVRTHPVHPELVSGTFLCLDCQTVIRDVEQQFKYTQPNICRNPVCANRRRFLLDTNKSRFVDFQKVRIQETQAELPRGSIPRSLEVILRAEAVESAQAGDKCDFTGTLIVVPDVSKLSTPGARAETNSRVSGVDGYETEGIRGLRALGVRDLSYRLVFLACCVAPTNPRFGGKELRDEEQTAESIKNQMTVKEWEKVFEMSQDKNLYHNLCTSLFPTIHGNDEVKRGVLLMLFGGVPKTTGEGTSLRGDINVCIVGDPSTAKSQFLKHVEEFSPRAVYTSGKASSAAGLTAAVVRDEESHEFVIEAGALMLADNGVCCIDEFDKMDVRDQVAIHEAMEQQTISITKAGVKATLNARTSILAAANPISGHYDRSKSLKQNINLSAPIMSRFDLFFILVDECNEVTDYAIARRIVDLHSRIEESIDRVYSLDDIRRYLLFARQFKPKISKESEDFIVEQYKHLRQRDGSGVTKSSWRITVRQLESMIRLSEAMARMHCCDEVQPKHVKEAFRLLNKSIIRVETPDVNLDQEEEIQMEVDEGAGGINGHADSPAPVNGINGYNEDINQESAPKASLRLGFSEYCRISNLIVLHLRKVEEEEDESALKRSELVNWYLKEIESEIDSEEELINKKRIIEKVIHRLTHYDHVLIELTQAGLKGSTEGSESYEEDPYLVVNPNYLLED
Method: as §1, §2, §3, §4

[4] = molecular target: T4, proteins displaced from immobilized biotin-Cmpd 1 pulldowns (U2OS cell lysate) (Homo sapiens, UniProt Q8WXX7); conditions: GN=AUTS2 (Q8WXX7)
T4 construct: endogenous in cells; host or cells: U2OS
T4 sequence (Q8WXX7 whole entry): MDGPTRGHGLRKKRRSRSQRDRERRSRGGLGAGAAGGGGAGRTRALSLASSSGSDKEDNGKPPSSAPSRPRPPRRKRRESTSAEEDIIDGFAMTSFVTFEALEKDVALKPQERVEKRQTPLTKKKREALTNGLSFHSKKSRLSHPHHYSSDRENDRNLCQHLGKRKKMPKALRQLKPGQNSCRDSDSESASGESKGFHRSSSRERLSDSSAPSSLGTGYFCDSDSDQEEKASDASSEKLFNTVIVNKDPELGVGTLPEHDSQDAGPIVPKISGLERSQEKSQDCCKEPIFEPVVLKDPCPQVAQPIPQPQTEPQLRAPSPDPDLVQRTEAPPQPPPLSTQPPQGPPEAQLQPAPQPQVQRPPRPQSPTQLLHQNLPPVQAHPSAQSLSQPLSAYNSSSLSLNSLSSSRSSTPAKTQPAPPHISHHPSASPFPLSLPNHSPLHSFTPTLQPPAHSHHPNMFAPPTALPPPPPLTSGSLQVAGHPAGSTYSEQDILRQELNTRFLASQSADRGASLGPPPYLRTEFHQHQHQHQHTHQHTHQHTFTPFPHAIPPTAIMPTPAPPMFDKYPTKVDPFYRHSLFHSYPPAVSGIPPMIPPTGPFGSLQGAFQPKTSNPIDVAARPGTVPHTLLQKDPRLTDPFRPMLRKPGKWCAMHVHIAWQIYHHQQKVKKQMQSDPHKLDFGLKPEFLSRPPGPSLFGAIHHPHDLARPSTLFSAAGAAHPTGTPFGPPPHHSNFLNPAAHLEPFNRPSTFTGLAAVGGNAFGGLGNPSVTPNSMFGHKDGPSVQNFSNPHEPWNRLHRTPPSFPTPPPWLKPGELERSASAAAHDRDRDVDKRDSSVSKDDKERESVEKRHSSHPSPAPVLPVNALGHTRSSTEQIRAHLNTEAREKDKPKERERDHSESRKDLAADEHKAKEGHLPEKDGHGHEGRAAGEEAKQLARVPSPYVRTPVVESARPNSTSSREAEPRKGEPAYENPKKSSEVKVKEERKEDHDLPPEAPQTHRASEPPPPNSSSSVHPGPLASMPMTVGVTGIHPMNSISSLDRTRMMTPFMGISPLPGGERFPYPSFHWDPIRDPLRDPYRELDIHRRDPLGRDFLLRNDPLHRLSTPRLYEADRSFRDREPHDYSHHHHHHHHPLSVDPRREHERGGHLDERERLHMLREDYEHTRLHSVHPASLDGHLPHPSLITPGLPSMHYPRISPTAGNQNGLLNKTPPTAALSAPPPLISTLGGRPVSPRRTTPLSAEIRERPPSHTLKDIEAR
Method: as §1, §2, §3, §4

[5] = molecular target: T5, proteins displaced from immobilized biotin-Cmpd 1 pulldowns (U2OS cell lysate) (Homo sapiens, UniProt Q96AG4); conditions: GN=LRRC59 (Q96AG4)
T5 construct: endogenous in cells; host or cells: U2OS
Method: as §1, §2, §3, §4

[6] = molecular target: T6, proteins displaced from immobilized biotin-Cmpd 1 pulldowns (U2OS cell lysate) (Homo sapiens, UniProt P01876); conditions: GN=IGHA1 (P01876)
T6 construct: endogenous in cells; host or cells: U2OS
T6 sequence (P01876 whole entry): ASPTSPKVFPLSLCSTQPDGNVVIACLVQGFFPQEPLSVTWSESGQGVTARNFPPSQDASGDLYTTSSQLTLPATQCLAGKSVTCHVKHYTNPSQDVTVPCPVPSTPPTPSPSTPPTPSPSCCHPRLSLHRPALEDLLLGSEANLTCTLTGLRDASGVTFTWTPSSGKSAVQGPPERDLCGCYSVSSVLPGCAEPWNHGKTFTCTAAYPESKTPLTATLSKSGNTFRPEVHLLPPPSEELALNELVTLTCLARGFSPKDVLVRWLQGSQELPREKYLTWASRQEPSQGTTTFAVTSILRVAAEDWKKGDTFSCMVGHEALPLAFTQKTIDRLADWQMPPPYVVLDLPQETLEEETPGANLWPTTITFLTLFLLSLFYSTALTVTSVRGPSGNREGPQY
Method: as §1, §2, §3, §4

[7] = molecular target: T7, proteins displaced from immobilized biotin-Cmpd 1 pulldowns (U2OS cell lysate) (Homo sapiens, UniProt P16615); conditions: GN=ATP2A2 (P16615)
T7 construct: endogenous in cells; host or cells: U2OS
Method: as §1, §2, §3, §4

[8] = molecular target: T8, proteins displaced from immobilized biotin-Cmpd 1 pulldowns (U2OS cell lysate) (Homo sapiens, UniProt Q9Y3C1); conditions: GN=NOP16 (Q9Y3C1)
T8 construct: endogenous in cells; host or cells: U2OS
T8 sequence (Q9Y3C1 whole entry): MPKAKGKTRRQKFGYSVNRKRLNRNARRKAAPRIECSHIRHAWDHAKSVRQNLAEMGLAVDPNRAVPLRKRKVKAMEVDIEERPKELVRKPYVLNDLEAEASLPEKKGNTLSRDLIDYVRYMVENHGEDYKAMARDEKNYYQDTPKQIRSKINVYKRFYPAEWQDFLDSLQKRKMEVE
Method: as §1, §2, §3, §4

[9] = molecular target: T9, proteins displaced from immobilized biotin-Cmpd 1 pulldowns (U2OS cell lysate) (Homo sapiens, UniProt P06396); conditions: GN=GSN (P06396)
T9 construct: endogenous in cells; host or cells: U2OS
T9 sequence (P06396 28-782): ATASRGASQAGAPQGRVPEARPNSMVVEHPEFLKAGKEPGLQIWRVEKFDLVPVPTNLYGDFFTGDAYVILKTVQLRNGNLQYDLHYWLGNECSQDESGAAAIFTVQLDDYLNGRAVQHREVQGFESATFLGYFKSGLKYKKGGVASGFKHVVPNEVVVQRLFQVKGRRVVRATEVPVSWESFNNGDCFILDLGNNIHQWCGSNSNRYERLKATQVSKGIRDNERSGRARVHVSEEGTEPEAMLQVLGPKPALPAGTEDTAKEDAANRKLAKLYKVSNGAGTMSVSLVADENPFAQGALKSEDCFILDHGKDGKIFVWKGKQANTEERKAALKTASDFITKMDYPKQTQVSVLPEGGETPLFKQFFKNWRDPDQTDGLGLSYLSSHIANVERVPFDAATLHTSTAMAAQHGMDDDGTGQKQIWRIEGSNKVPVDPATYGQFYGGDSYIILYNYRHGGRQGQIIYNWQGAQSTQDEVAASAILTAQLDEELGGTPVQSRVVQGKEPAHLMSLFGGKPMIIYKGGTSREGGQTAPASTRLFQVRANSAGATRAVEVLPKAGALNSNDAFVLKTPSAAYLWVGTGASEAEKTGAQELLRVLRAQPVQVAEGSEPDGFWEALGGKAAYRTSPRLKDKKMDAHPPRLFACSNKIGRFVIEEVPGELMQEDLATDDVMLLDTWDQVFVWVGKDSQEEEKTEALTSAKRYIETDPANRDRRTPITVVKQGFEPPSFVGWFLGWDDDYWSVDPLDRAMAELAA
Method: as §1, §2, §3, §4

[10] = molecular target: T10, proteins displaced from immobilized biotin-Cmpd 1 pulldowns (U2OS cell lysate) (Homo sapiens, UniProt P20042); conditions: GN=EIF2S2 (P20042)
T10 construct: endogenous in cells; host or cells: U2OS
T10 sequence (P20042 whole entry): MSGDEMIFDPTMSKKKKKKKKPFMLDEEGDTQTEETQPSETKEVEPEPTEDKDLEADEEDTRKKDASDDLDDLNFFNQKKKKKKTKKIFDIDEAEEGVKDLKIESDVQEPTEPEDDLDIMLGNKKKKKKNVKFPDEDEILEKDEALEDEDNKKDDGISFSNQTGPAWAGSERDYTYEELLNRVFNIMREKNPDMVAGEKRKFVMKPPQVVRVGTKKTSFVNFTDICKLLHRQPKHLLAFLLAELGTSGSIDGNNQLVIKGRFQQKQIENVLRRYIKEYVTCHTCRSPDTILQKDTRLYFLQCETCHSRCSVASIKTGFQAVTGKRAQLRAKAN
Method: as §1, §2, §3, §4

## Cn1c2c(c(=N)c3c1CCC3)CCC2 [Compound 1, 4-methyl-2,3,4,5,6,7-hexahydrodicyclopenta[b,e]pyridin-8(1H)-imine]
[1]; Cmpd minus DMSO, -LOG(P-value) 1.04359
  Difference: 0.4116
[1]; replicates 1-3
  iBAQ Cmpd: 19.4014 and 19.227 and 18.8879
[2]; Cmpd minus DMSO, -LOG(P-value) 0.798528
  Difference: 1.553
[2]; replicates 1-3
  iBAQ Cmpd: 20.8595 and 22.7108 and 22.2667
[3]; Cmpd minus DMSO, -LOG(P-value) 0.814851
  Difference: 1.097
[3]; replicates 1-3
  iBAQ Cmpd: 19.4847 and 18.183 and 18.682
[4]; Cmpd minus DMSO, -LOG(P-value) 1.37908
  Difference: 1.498
[4]; replicates 1-3
  iBAQ Cmpd: 16.2582 and 17.12 and 17.1513
[5]; Cmpd minus DMSO, -LOG(P-value) 0.840063
  Difference: -2.23
[5]; replicates 1-3
  iBAQ Cmpd: 17.7382 and 14.7804 and 13.8761
[6]; Cmpd minus DMSO, -LOG(P-value) 0.808053
  Difference: -3.043
[6]; replicates 1-3
  iBAQ Cmpd: 18.0352 and 17.6842 and 20.2605
[7]; Cmpd minus DMSO, -LOG(P-value) 0.792118
  Difference: 1.325
[7]; replicates 1-3
  iBAQ Cmpd: 18.9227 and 18.7034 and 17.2331
[8]; Cmpd minus DMSO, -LOG(P-value) 0.713884
  Difference: 3.378
[8]; replicates 1-3
  iBAQ Cmpd: 19.623 and 19.0936 and 18.8692
[9]; Cmpd minus DMSO, -LOG(P-value) 0.71197
  Difference: -1.503
[9]; replicates 1-3
  iBAQ Cmpd: 18.7093 and 18.978 and 19.6978
[10]; Cmpd minus DMSO, -LOG(P-value) 0.750637
  Difference: -2.049
[10]; replicates 1-3
  iBAQ Cmpd: 14.3581 and 16.9929 and 16.8192
